Results from patent publication US6355642B1, “Tetrahydrobenzindole compounds” (Meiji Seika Kaisha, Ltd., priority 1996, dated 2002).
Where two headings read alike, the source gives them in different places.

Columns and labels:
[1] = target: T1, human serotonin 5-HT7 receptor subtype (Homo sapiens, UniProt P34969); assay: Binding affinity for 5-HT7 receptor ([3H]-5-CT displacement, membrane fraction of expressing cells)
T1 construct: expressed in transfected cells
Experimental: Binding Affinity for 5-HT7 Receptor
Cultured cells capable of expressing human serotonin 5-HT7 receptor subtype were collected in an assay buffer (50 mM Tris-HCl, pH 7.4, containing […], 0.2 mM EDTA, 0.001% pargyline and 0.1% ascorbic acid) and homogenized with a Potter type homogenizer. Then the membrane fraction was subjected to 20 minutes of centrifugation at 39,000 g and at 4° C. The thus obtained pellet was re-suspended in 1 ml (per cells per one culture dish of 10 cm in diameter) of the assay buffer and homogenized again. This test was carried out on 1 nM in final concentration of [^3H]-5-CT (carboxamide triptamine) and 1 to 1, 000 nM of the compounds of Examples 1 to 90 represented by the general formula (I). A 100 μl of the membrane fraction was added to the reaction tube, final assay volume was adjusted to 500 μl, and the reaction was carried out by incubating the medium at 37° C. for 15 minutes. The incubation was terminated by quickly filtering the reaction system on a GF/B filter which was subsequently washed with 6 ml of cold 50 mM Tris-HCl (pH 7.4). Radioactivity was measured using Packard liquid scintillation counter. Non-specific binding was determined by 10 μM metergoline, and the specific binding was calculated based on the difference. IC50 value of each compound was determined by non-linear least square regression analysis, and dissociation constant Ki was calculated from the value.

5-HT2 receptor = target: T2, 5-HT2 receptor (Rattus norvegicus, UniProt P14842); assay: Binding affinity for 5-HT2 receptor ([3H]ketanserin displacement, rat cerebral cortex P2 fraction); conditions: 1 nM [3H]ketanserin, Ki calculated from IC50
T2 construct: the thus obtained precipitate was used as P2 fraction; from tissue; host or cells: rat cerebral cortex, P2 membrane fraction
T2 sequence (P14842 whole entry): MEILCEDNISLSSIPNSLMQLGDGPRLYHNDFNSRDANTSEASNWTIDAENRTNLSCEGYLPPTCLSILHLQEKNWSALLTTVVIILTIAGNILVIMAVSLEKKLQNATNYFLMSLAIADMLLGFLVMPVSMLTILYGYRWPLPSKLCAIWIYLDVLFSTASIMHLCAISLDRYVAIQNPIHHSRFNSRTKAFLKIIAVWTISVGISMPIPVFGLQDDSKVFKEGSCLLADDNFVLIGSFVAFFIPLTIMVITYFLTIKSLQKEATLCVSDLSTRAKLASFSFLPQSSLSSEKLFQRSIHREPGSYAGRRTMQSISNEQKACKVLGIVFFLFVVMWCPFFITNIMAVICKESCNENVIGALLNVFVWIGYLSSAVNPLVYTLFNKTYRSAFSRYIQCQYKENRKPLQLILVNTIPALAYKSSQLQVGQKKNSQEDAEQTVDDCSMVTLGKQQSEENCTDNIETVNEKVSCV
Experimental: Binding Affinity for 5-HT2 receptor
Rat cerebral cortex was homogenized in 10 volumes of 0.32 M sucrose solution and centrifuged for 10 minutes at 900×g, and the resulting supernatant fluid was again centrifuged for 20 minutes at 11,500×g. The thus obtained precipitate was re-suspended in […] Tris-HCl (pH 7.4) buffer and centrifuged for 20 minutes at 39,900×g, and the thus obtained precipitate was used as P2 fraction. The P2 fraction was incubated at 37° C. for 15 minutes in 50 mM Tris-HCl (pH 7.4) buffer containing 1 nM of [^3H] ketanserin and each of the compounds of the present invention and then filtered after the reaction using Whatman GF/B glass filter. The ^3H radioactivity on the filter was measured using a liquid scintillation counter. Non-specific binding was determined in the presence of 10 μM ketanserin, and the specific binding was calculated based on the difference. IC50 value of each compound was determined by non-linear least square regression analysis, and dissociation constant Ki was calculated from the value. The dissociation constant of 5-HT2 obtained by this test, dissociation constant of 5-HT7 obtained in Test Example 1 and their ratio are shown in the following table. As is evident from the results shown in the following table, compounds of the present invention show their affinity for 5-HT2 receptor too, but they bind more selectively to 5-HT7 receptor.

[2] = human 5-HT7 expressing cultured cells, 1 nM [3H]-5-CT, Ki calculated from IC50, read-out: Ki (nM) of 5-HT7

T1 sequence (P34969 whole entry): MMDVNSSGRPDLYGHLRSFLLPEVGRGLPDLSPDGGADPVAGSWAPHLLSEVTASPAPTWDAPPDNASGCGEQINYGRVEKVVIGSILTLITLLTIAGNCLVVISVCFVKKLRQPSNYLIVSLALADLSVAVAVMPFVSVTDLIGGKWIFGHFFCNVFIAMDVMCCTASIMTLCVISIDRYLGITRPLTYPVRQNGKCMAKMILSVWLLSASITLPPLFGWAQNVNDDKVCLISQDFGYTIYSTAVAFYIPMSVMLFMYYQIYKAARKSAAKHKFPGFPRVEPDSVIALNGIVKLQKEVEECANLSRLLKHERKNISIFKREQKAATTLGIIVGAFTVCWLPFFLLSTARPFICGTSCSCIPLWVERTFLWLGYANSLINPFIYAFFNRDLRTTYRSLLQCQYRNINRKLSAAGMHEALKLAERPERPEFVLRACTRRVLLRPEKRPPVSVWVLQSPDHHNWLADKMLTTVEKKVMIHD

| SMILES | Ki [1, 2] | 5-HT2/5-HT7 ([1]; ratio of dissociation constants Ki 5-HT2 / Ki 5-HT7) | Ki (5-HT2 receptor) | Ki [1] |
| --- | --- | --- | --- | --- |
| O=C1Nc2cccc3c2C1(CCCCN1CCN(c2ccccn2)CC1)CCC3 (stereo not shown) [Compound 87, 2a-[4-{4-(^2-Pyridyl)piperazinyl}butyl]-2a,3,4,5-tetrahydrobenz[cd]indole-2(1H)-one] | 11 nM | 11.0 | 120 nM | – |
| COc1ccccc1N1CCN(CCCCC23CCCc4cccc(c42)NC3=O)CC1 (stereo not shown) [Compound 5, 2a-[4-{4-(2-Methoxyphenyl)piperazinyl}butyl]-2a,3,4,5-tetrahydrobenz[cd]indole-2(1H)-one] | 8.9 nM | – | 61 nM | – |
| COC1(c2ccccc2)CCN(CCCCC23CCCc4cccc(c42)NC3=O)CC1 (stereo not shown) [Compound 56, 2a-[4-(4-Methoxy-4-phenyl-piperidyl)butyl]-2a,3,4,5-tetrahydrobenz[cd]indole-2(1H)-one] | – | – | 414 nM | 27 nM |
